Measurements from US20080306076A1, “MODULATION OF CHEMOSENSORY RECEPTORS AND LIGANDS ASSOCIATED THEREWITH” (SENOMYX, INC., priority 2007, published 2008).
Where a chain is given by its changes, count along the chain named.

Tests used:
[1] = biological target: T1, hT1R1 H308A (Homo sapiens, UniProt Q7RTX1, H308A); test: Mutagenesis study, hT1R1 mutant H308A; assay type: cell-based; settings: H308 mutation
T1 construct: expressed in transfected cells; host or cells: HEK293, transient transfection
T1 sequence (Q7RTX1 21-841 H308A): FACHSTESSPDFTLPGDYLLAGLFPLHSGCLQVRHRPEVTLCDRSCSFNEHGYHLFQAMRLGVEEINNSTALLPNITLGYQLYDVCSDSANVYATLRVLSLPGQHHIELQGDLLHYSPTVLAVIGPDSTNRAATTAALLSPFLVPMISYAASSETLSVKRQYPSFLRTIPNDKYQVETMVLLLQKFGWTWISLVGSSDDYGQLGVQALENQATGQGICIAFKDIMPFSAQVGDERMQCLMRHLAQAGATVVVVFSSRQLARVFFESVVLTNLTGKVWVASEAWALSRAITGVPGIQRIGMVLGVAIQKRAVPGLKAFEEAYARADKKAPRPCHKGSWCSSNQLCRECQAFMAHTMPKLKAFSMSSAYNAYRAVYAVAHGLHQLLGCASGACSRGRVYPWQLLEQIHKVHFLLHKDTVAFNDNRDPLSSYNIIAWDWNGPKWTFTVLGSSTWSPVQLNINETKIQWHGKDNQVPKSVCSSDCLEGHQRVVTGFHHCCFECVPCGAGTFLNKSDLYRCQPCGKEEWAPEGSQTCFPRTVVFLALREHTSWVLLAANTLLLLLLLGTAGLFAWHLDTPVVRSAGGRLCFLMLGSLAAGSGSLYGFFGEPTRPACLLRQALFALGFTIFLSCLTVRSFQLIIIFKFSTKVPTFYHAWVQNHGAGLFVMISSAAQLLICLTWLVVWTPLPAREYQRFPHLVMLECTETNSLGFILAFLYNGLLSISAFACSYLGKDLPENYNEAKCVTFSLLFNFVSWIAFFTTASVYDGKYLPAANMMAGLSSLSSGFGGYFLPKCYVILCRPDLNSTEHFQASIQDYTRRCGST
T1 sequence (Q923K1 21-858 partner): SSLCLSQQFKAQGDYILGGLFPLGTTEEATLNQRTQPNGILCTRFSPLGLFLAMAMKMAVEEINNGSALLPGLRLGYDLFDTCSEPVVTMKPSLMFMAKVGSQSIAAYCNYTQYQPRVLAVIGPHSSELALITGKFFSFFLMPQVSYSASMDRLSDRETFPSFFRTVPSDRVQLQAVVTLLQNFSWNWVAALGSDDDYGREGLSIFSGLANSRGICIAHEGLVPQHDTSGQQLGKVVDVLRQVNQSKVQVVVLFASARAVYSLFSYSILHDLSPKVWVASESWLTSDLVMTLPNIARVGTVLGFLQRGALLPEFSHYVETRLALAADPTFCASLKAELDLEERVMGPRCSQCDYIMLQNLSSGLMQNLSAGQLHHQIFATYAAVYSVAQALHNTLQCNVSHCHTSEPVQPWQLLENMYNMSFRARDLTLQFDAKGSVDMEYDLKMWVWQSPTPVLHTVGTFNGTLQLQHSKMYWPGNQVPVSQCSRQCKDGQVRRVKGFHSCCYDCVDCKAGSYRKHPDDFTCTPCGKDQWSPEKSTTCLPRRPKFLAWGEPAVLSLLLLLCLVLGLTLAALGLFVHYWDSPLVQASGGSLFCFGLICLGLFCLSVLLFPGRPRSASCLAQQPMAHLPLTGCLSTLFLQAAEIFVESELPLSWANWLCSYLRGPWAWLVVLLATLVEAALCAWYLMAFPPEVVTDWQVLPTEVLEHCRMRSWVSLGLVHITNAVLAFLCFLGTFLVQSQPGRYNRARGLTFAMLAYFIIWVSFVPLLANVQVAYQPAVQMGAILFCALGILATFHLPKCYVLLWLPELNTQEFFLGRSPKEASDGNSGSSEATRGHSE
Description: (§1) In order to further define the interaction sites of umami stimuli, we performed site-directed mutagenesis on human T1R1 VFT. The mutagenesis was done using the routine PCR-based method. […] were transiently transfected into HEK293 cell together with the rat T1R3 wild type cDNA, and the transfected cells were characterized using an automated FLIPR machine or a calcium imaging system as described in our previous patent applications.

[2] = biological target: T2, hT1R1 S172A (Homo sapiens, UniProt Q7RTX1, S172A); test: Mutagenesis study, hT1R1 mutant S172A; assay type: cell-based; settings: S172 mutant, FIG. 11
T2 construct: expressed in transfected cells; host or cells: HEK293, transient transfection
T2 sequence (Q7RTX1 21-841 S172A): T1 sequence (Q7RTX1 21-841 H308A) with S152A, A288H
T2 sequence (Q923K1 21-858 partner): T1 sequence (Q923K1 21-858 partner)
Description: as §1

Row | Compound | enhancement activity of GMP [1] | activity against L-Glu [2]
1 | Nc1nc2c(ncn2[C@@H]2O[C@H](COP(=O)(O)O)[C@@H](O)[C@H]2O)c(=O)[nH]1 [GMP, guanosine-5′-monophosphate] | similarly affected | –
2 | N[C@@H](CCC(=O)O)C(=O)O [L-Glu, L-glutamate] | – | significant reduced activity
